Molecules are shown by their SMILES.

Data set [1] has as its system mice. Put plainly: Tail suspension test in mice. The class given is in vivo, mouse. The following applies: 30 min before test. On the procedure: Adult male Albino-Swiss mice (CD-1, 8 weeks old, 18–21g: Jagiellonian University Medical College, Krakow, Poland) were used in all experiments. Unless stated otherwise, the animals were kept in groups of 10 mice in standard cages (37 cm × 21 cm × 15 cm) at a room temperature (22 ± 2 °C), on a 12 h light/dark cycle (lights on 7:00) with ad libitum access to food and water. Mice were used only once in each test. Behavioral experiments were performed between 8 am and 4 pm and evaluated by a trained observer blind to the treatments. Mice were handled for 1 week before starting the experimental procedures. Animals were randomly allocated to the treatment using a computer-generated sequence, and researchers making measurements on the animals or analyzing the results were blind to the allocation. Moreover, experimental groups were distributed across multiple cages, and the location of the mouse cages in the room was changed following each day. […]
The experiment was carried out in mice according to the method described by Steru et al. and as previously described. […] The total time of immobility was measured during the 6-min test period. […] The experiments were video-recorded and scored using elevenmaze.com software by a trained observer blind to the treatments.

A further data set has as its target T1, human 5-HT1A receptor (Homo sapiens, UniProt P08908).
T1 construct: expressed in transfected cells; host or cells: CHO-K1 (membranes)
T1 sequence (P08908 1-422): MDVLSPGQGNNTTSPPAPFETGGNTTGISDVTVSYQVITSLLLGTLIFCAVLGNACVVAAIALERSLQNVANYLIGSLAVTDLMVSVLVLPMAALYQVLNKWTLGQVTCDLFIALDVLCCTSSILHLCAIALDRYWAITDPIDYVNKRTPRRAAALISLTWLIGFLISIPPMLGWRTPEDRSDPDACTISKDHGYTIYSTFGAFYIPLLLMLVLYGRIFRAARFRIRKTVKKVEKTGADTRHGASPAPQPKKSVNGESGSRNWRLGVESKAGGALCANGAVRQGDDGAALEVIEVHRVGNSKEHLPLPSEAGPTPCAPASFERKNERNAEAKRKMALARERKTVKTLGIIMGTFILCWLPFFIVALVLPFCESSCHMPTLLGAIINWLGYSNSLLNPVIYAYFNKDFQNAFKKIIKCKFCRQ
Put plainly: Radioligand binding, [3H]8-OH-DPAT, CHO-K1 membranes. The settings on record: CHO-K1 cells, mean ± SEM, read-out: Serotonergic pKi 5-HT1A (converted). On the procedure: (§1) Radioligand binding was performed on membranes from CHO-K1 cells stably transfected with the human 5-HT1A, 5-HT2A, 5-HT6, or 5-HT7 receptors. […] Binding experiments were conducted in 96-well microplates, and the reaction mix included the solution of the test compound, radioligand, and diluted membranes or the tissue suspension.
(§2) The reaction was terminated by rapid filtration through GF/B or GF/C filter mate presoaked with 0.3% polyethyleneimine for 30 min. Ten rapid washes with 200 µl 50 mM Tris buffer (4 °C, pH 7.4) were performed using an automated harvester system Harvester-96 MACH III FM (Tomtec). […] Radioactivity was counted in the MicroBeta2 scintillation counter (PerkinElmer) at approximately 30% efficiency. […] A single assay was performed with each compound concentrations in duplicate, and the whole assay was repeated in a three independent experiments.

The target in data set [2] is T2, serotonin transporter (SERT) (Rattus norvegicus, UniProt P31652).
T2 construct: from tissue; host or cells: rat cortex
Nature of the data set: Radioligand binding, [3H]-citalopram, rat cortex tissue. The following applies: mean ± SEM, read-out: Serotonergic pKi SERT (converted). On the procedure:
as §1, §2

For a further data set, the target named is T3, dopamine D2 receptor (Homo sapiens, UniProt P14416).
T3 construct: expressed in transfected cells; host or cells: recombinant CHO-K1 co-expressing mitochondrially targeted aequorin and Gαqi/5
Put plainly: Aequorin-based calcium mobilization functional assay, CHO-K1 cells. It is filed as cell-based. As for the experimental part: Therefore, using in vitro functional assay, we next investigated the type of the interaction with this receptor.
Tested and reference compounds were dissolved in dimethyl sulfoxide (DMSO) at a concentration of 1 mM. Serial dilutions were prepared in 96-well microplate in assay buffer, and 8-to-10 concentrations were tested. A cellular aequorin-based functional assay was performed with recombinant CHO-K1 cells expressing mitochondrially targeted aequorin, human GPCR, and the promiscuous G protein Gαqi/5 for D2 receptor. After thawing, cells were transferred to assay buffer (DMEM/HAM’s F12 with 0.1% protease-free BSA) and centrifuged. The cell pellet was resuspended in assay buffer, and coelenterazine h was added at final concentrations of 5 µM. […] After 1 h of incubation, 50 µL of the cell’s suspension was dispensed using automatic injectors built into the radiometric and luminescence plate counter MicroBeta2 LumiJET (PerkinElmer, USA) into white opaque 96-well microplates preloaded with test compounds. Immediate light emission generated following calcium mobilization was recorded for 30 s. In antagonist mode, after 30 min of incubation, the reference agonist was added to the above assay mix and light emission was recorded again.
On the technique in general: A change in cytosolic calcium serves as a functional read-out for many receptors and channels.

For data set [3], the system named is mice. Put plainly: Rotarod test in mice. It is filed as in vivo, mouse. On the procedure: (§3) This experimental procedure was described in detail in our earlier studies. Briefly, mice were trained on the rotarod apparatus (May Commat RR0711, Turkey; rod diameter: 2 cm) every day for 3 consecutive days. During each training session, mice were placed for 3 min on the rotating rod (24 rpm, constant speed) with an unlimited number of trials. The experiment was performed 24 h after the last training session. On the test day, mice were injected with HBK-10, and 30 min after the administration tested on the rotarod (24 rpm, constant speed). Motor impairment was regarded as the inability to remain on the rotating rod for 60 s and was expressed as the % of animals that fell off the rotating rod.
(Falling from the rotarod earlier than controls is read as motor impairment.)

The nature of a further data set: Rotarod test in mice. The class given is in vivo, mouse. The settings on record: mouse, in vivo; ip, log-probit method. On the procedure: as §3

T3 sequence (P14416 whole entry): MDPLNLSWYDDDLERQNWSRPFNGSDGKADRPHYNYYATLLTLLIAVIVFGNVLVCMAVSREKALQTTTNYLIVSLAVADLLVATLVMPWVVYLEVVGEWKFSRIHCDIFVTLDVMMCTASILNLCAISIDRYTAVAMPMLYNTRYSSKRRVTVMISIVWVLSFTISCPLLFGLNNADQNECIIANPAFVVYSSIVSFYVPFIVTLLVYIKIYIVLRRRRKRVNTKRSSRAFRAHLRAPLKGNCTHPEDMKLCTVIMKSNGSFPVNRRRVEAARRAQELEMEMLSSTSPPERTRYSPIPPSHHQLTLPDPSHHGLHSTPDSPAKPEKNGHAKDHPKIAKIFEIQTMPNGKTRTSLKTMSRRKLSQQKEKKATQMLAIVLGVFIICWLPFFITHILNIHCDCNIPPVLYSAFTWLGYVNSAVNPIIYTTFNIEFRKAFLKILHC
T2 sequence (P31652 whole entry): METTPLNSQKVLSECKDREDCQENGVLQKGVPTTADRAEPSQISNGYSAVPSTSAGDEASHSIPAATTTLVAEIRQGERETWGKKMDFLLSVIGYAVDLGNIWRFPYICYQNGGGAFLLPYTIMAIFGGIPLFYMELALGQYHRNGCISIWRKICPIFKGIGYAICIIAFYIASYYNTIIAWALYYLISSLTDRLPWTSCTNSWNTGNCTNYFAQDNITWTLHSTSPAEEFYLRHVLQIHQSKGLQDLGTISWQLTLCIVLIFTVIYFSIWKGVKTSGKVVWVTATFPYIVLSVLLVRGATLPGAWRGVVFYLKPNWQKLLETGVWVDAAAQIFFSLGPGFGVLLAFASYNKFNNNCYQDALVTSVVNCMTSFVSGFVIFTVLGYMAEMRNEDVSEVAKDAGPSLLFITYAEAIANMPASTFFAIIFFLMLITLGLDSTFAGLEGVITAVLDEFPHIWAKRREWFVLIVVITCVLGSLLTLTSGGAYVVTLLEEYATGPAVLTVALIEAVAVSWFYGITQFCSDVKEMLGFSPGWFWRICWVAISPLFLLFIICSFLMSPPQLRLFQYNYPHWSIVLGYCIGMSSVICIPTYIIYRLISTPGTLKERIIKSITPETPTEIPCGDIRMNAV

As for `CCC(CN1CCN(c2ccccc2OC)CC1)NCCCOc1c(C)cccc1C.Cl.Cl` (stereo not shown) [HBK-10, N-(3-(2,6-dimethylphenoxy)propyl)-1-(4-(2-methoxyphenyl)piperazin-1-yl)butan-2-amine dihydrochloride], the melting point fell in the range of 224 to 226 °C. Also, the “Reduction of immobility in the tail suspension test” value with mice [1] (5 mg/kg ip) was found to be 54.5%. Also, the “Reduction of immobility in the tail suspension test” value in the data set with mice [1] (10 mg/kg ip) stood at 42%. The Ki on human 5-HT1A receptor is 5.13 nM. The Ki in data set [2] was 3.72 µM. For the same compound, the Emax at dopamine D2 receptor (CHO-K1, read-out: Emax %, agonist mode) worked out at 9%. Moreover, the “Kb, fold lower than Kb of chlorpromazine” value at dopamine D2 receptor (D2, antagonist mode) worked out at 3.1 fold. In addition, the Kb at dopamine D2 receptor (D2, antagonist mode, Cheng–Prusoff equation) came out at 2.76 nM. On dopamine D2 receptor (read-out: pIC50 ± SEM, antagonist mode (converted)), the IC50 was 9.33 nM. The “% of Animals That Fell from Rotating Rod” value in the data set on mice [3] (40 mg/kg ip) is 29%. For the same compound, the “% of Animals That Fell from Rotating Rod” value with mice [3] (45 mg/kg ip) is recorded as 63%. Further, the “% of Animals That Fell from Rotating Rod” value in the data set on mice [3] (60 mg/kg ip) is recorded as 86%. In addition, in the data set “Rotarod test in mice”, the TD50 at 30 min is 44.3 mg/kg.

For orientation: melting point means the temperature of the solid-liquid transition. For orientation: Emax means the maximal effect, on the per cent scale that the assay sets. For orientation: Kb means the affinity of an antagonist, worked out from how it opposes an agonist. By TD50 is commonly meant the 50% point of the dose-response relation for the toxic effect studied. Read a high TD50 as lower toxicity.

The values are drawn from article PMC8400343, “Synthesis and Evaluation of the Antidepressant-like Properties of HBK-10, a Novel 2-Methoxyphenylpiperazine Derivative Targeting the 5-HT1A and D2 Receptors” (Pharmaceuticals, 2021).
